The values below come from US7060707B2, “Isoquinoline derivatives” (Merck Patent GmbH, priority 2002, dated 2006).

On to `Cc1ccnc(NCCCCC(=O)NNC(=O)N2CCc3ccccc3C2CC(=O)O)c1` (stereo not shown) [Example 4], for which the melting point is 103 to 109 °C.
